One assay addresses uPAR (Homo sapiens, UniProt Q03405). Particulars: individual N-substituted glycine peptoids.
The next assay addresses sUPAR (Homo sapiens, UniProt Q03405). Particulars: mixture 1 μM per compound, sUPAR 1 μM.

Data on two substances can be found in patent US5891742A, “Affinity selection of ligands by mass spectroscopy” (Chiron Corporation, priority 1995, dated 1999).

Chain of sUPAR (Q03405 23-305): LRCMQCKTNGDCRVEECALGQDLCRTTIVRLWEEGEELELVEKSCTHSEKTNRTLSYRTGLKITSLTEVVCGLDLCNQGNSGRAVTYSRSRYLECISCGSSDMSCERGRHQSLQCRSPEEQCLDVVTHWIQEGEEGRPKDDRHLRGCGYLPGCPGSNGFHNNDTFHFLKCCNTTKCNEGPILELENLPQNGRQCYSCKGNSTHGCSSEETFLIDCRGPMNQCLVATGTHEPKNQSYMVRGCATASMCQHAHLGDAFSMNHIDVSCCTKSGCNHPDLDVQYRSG
Chain of uPAR (Q03405 23-305): as above
Description for sUPAR: The mixture (1 μM per compound) was contacted with sUPAR (1 μM) in the presence and absence of uPA1-48(2 μM), incubated for 30 minutes, and applied to a SEC HPLC column (Pharmacia HSIO/IO). The compound-target complex eluting in the excluded volume of the column was collected and analyzed on an ES MS (PE-Sciex).

Consider 1,4-benzodioxane, for which the “activity (affinity for uPAR)” value at uPAR is reported as “insignificant activity”. Regarding diphenyl, the “selection as compound-target complex, detected by ES MS” value at sUPAR (absence of uPA1-48, 30 minutes, SEC HPLC excluded volume) is recorded as “selected”. Also, the “specificity of selection, by competition with ligand uPA1-48” value at sUPAR (presence of uPA1-48 (2 μM)) is recorded as “specificity was confirmed by competition”.
